Test results from patent US20130089568A1, “HAIR GROWTH STIMULATOR BASED ON ECKLONIA CAVA EXTRACT, PREPARATION METHOD THEREOF, AND COSMETIC COMPOSITION CONTAINING THE SAME” (priority 2011, published 2013).

Legend:
Format in all cases: cell-based
[1] = test system: hair-related cells; assay: Test of isolated active substances using hair-related cells in an in vitro system
Description: The 7′-fluoroeckol compound is disclosed in Korean Patent Application No. 10-2011-0000141. The present invention aims to find a dioxinodehydroeckol compound and an Ecklonia cava extract using an extraction method capable of improving hair growth effects.

[2] = test system: human follicle dermal papilla cells; assay: Cell viability of human follicle dermal papilla cells (MTT assay)
Method: The cell viability of human follicle dermal papilla cells were measured using a 3-(4,5-dimethylthiazole-2-yl)-2,5-diphenyl-tetrazolium bromide [MTT] assay.
Specifically, 100 μL of cells were dispensed into each well of 96-well plates at a concentration of 1×10^6 cells/ml and cultured for 24 hours. A sample was prepared in a medium free of FBS and 1% penicillin/streptomycin at various concentrations, and the cells was treated with the sample and incubated for 24 hours. The cells were treated with an MTT solution (5 mg/mL) for 3 hours, and then the MTT was reduced and the medium was carefully removed such that the produced formazan was not removed. Then, 100 μL of dimethyl sulfoxide (DMSO) was dispensed into each well, and after 30 minutes, the absorbance at 570 nm was measured.

[3] = test system: human hair tissue; assay: Evaluation of hair growth by culture of human hair tissue; details: 0.1 μM
Method: Human hair tissue provided from Immunobiology Laboratory, Kyungpook National University, was used in the test and cultured in a CO2 incubator at 37° C. with Williams E media (Sigma, USA) containing 2 mM L-glutamin, 100 U/ml streptomycin and 10 ng/ml hydrocortisone. The tissue was cultured with various concentrations of the test material for 6 days, and the length of the hair tissue was measured at days 3 and 6.

[4] = test system: human follicle dermal papilla cells; assay: Protein expression test (Western blotting) in human follicle dermal papilla cells; details: 0.1 μM, 24 hours
Method: (§1) Human follicle dermal papilla cells were purchased from Promo Cell (Heidelberg, Germany). The cells were cultured in a ready-to-use HFDPC medium composed of a basal medium, FCS (fetal calf serum) and a supplement kit Promo Cell (Heidelberg, Germany) containing basal FGF and insulin. For subculture, a kit containing HBSS (HEPES buffered saline), trypsin/EDTA solution and neutralizing solution (Promo Cell, Heidelberg, Germany) was used. Human follicle dermal papilla cells at passages 4 to 6 were used in the test and cultured in a T-25 flask containing 5 ml of medium under the conditions of 37° C. and 5% CO2.
In order to examine the mechanisms of action of the purified extract of Ecklonia cava and the dioxinodehydroeckol compound on the proliferation of human follicle dermal papilla cells, Western blotting was carried out according to standard protocol.
Specifically, the cells were seeded into a 6-well medium together with a serum-free medium and cultured for 24 hours (1.0×10^6 cells/well). Then, the medium was replaced with a fresh medium, and the cells were treated with various concentrations of a sample for 1-24 hours. […] The cells were cultured with horseradish-peroxidase-conjugated secondary antibody at room temperature, and then immune-reactive protein was detected using an enhanced chemiluminescence (ECL) analysis kit according to the manufacturer's instruction. […]

[5] = test system: human follicle dermal papilla cells; assay: mRNA expression (RT-PCR) in human follicle dermal papilla cells; details: 0.1 μM, 24 hours
Method: as §1
In order to examine the mechanisms of action of the purified extract of Ecklonia cava and the dioxinodehydroeckol compound on the proliferation of human follicle dermal papilla cells, reverse transcription polymerase chain reaction (RT-PCR) was performed according to a standard protocol. Specifically, the cells were seeded into a 6-well plate together with a serum-free medium and cultured for 24 hours (1.0×10^6 cells/well). Then, the medium was replaced with a fresh medium, and the cells were treated with various concentrations of a test material for 24 hours and then lysed with TRIzol® (Invitrogen).

Molecule | influence on hair-related cells [1] | cell viability ([2]; 1 μM, listed as minoidil) [%] | viability at 1 µM ([2]; Homo sapiens, 1 μM) [%] | increased hair length ([3]; day 3) [mm] | increased hair length ([3]; day 6) [mm] | expression level of BMP2/4 protein, increase compared to untreated control [4] [times] | expression level of β-catenin protein, increase compared to untreated control [4] [times] | viability at 0.1 µM ([2]; Homo sapiens, 0.1 μM, read-out: highest cell viability) [%] | viability of the human follicle dermal papilla cells compared to untreated control ([2]; concentration range of 0.001-5 μM, FIG. 1c) | expression level of ALP mRNA, increase [5] [times] | expression level of VCAN mRNA, increase [5] [times] | expression level of VEGF mRNA, increase [5] [times]
7′-fluoroeckol [7′-fluoroeckol compound] | specifically influence hair-related cells | – | – | – | – | – | – | – | – | – | – | –
Nc1cc(N2CCCCC2)nc(N)[n+]1[O-] [Minoxidil, reference compound] | – | 121 | 119 | – | – | – | – | – | – | – | – | –
Oc1cc(O)c2oc3cc(O)c4oc5cc(O)cc(O)c5oc4c3oc2c1 [dioxinodehydroeckol] | specifically influence hair-related cells | – | – | 0.84 | 1.43 | 1.8 | 2.0 | 142 | significantly increased | 1.5 | 1.8 | 1.3
